Results from ChEMBL document CHEMBL5104159, “Synthesis and antitumor activity of a series of novel N-aryl-5-(2,2,2-trifluoroethoxy)-1,5-dihydro-2H-pyrrol-2-ones derivatives” (Bioorg Med Chem Lett, 2022).
Counter-ions that a name gives are not always drawn. Active and inactive are the calls of the source. The calls are words filed in the database; no cut-off is given here.

Assays:
A549 = assay: Antiproliferative activity against human A549 cells assessed as inhibition of cell growth; format: functional, cell-based
MDA-MB-231 = assay: Antiproliferative activity against human MDA-MB-231 cells assessed as inhibition of cell growth; format: functional, cell-based
HeLa = assay: Antiproliferative activity against human HeLa cells assessed as inhibition of cell growth; format: functional, cell-based
K562 [1] = assay: Antiproliferative activity against human K562 cells assessed as inhibition of cell growth; format: functional, cell-based
K562 [2] = assay: Induction of apoptosis in human K562 cells assessed as early apoptotic cells at 10 uM by AnnexinV-FITC/propidium iodide staining based flow cytometric analysis (reference value: 2.56%); format: functional
K562 [3] = assay: Induction of apoptosis in human K562 cells assessed as dead cells at 10 uM by AnnexinV-FITC/propidium iodide staining based flow cytometric analysis (reference value: 5.94%); format: functional
K562 [4] = assay: Induction of apoptosis in human K562 cells assessed as late apoptotic cells at 10 uM by AnnexinV-FITC/propidium iodide staining based flow cytometric analysis (reference value: 5.1%); format: functional
K562 [5] = assay: Induction of cell cycle arrest in human K562 cells assessed as accumulation of cells at G2 phase at 10 uM by flow cytometry analysis (reference value: 5.38%); format: functional
K562 [6] = assay: Induction of cell cycle arrest in human K562 cells assessed as accumulation of cells at G1 phase at 10 uM by flow cytometry analysis (reference value: 73.3%); format: functional
K562 [7] = assay: Induction of cell cycle arrest in human K562 cells assessed as accumulation of cells at S phase at 10 uM by flow cytometry analysis (reference value: 21.32%); format: functional
K562 [8] = assay: Induction of apoptosis in human K562 cells assessed as viable cells at 10 uM by AnnexinV-FITC/propidium iodide staining based flow cytometric analysis (reference value: 86.4%); format: functional; conditions: read-out: Activity
K562 [9] = assay: Induction of apoptosis in human K562 cells assessed as increase in HTRA2/omi level at 100 uM measured after 48 hrs by human apoptosis array analysis; format: functional, cell-based
K562 [10] = assay: Induction of apoptosis in human K562 cells assessed as increase in Bax/Bcl-2 ratio at 100 uM measured after 48 hrs by human apoptosis array analysis; format: functional, cell-based
K562 [11] = assay: Induction of apoptosis in human K562 cells assessed as increase in FADD level at 100 uM measured after 48 hrs by human apoptosis array analysis; format: functional, cell-based
K562 [12] = assay: Induction of apoptosis in human K562 cells assessed as increase in cleaved caspase-3 level at 100 uM measured after 48 hrs by human apoptosis array analysis; format: functional, cell-based
K562 [13] = assay: Induction of apoptosis in human K562 cells assessed as increase in SMAC/Diablo level at 100 uM measured after 48 hrs by human apoptosis array analysis; format: functional, cell-based
K562 [14] = assay: Induction of apoptosis in human K562 cells assessed as increase in pro-caspase 3 level at 100 uM measured after 48 hrs by human apoptosis array analysis; format: functional, cell-based
[15] = Cytotoxicity against human L02 cells assessed as cell viability at 2 ug/ml relative to control; format: toxicity, cell-based; conditions: at 2 µg/mL, read-out: Activity

| SMILES | IC50 (A549) | IC50 (MDA-MB-231) | IC50 (HeLa) | IC50 (K562 [1]) | further results |
| --- | --- | --- | --- | --- | --- |
| COC(=O)c1ccc(N2C(=O)C=CC2OCC(F)(F)F)cc1 (stereo unspecified) | 8.17 µM | 12.1 µM | 5.7 µM | 14.7 µM | – |
| O=C1C=CC(OCC(F)(F)F)N1c1ccccc1F (stereo unspecified) | 44.9 µM | 20.6 µM | 19.2 µM | 12 µM | – |
| COc1ccc(/C=C\c2cc(OC)c(OC)c(OC)c2)cc1O [COMBRETASTATIN A4] | – | – | – | – | Activity (K562 [2]): 43.7%; Activity (K562 [3]): 1.36%; Activity (K562 [4]): 22.2%; Activity (K562 [5]): 47.61%; Activity (K562 [6]): 21.92%; Activity (K562 [7]): 30.46%; viability at 10 µM (K562 [8]): 32.7% |
| O=C1C=CC(OCC(F)(F)F)N1c1ccc(Cl)cc1F (stereo unspecified) | 6.63 µM | 6.1 µM | 8.32 µM | 6.21 µM | – |
| CC(C)(C)c1ccc(N2C(=O)C=CC2OCC(F)(F)F)cc1 (stereo unspecified) | 8.5 µM | 1.86 µM | 18.1 µM | 0.07 µM | Activity (K562 [2]): 33.3%; Activity (K562 [9]): Active; Activity (K562 [10]): Active; Activity (K562 [11]): Active; Activity (K562 [12]): Active; Activity (K562 [3]): 2.4%; Activity (K562 [4]): 22.8%; Activity (K562 [13]): Active; Activity (K562 [14]): Active; viability at 2 ug/ml [15]: 81%; Activity (K562 [5]): 80.18%; Activity (K562 [6]): 18.84%; Activity (K562 [7]): 0.98%; viability at 10 µM (K562 [8]): 41.5% |
| O=C1C=CC(OCC(F)(F)F)N1c1cc(F)cc(F)c1 (stereo unspecified) | 5 µM | 7.84 µM | 8.46 µM | 0.52 µM | Activity (K562 [2]): 25.5%; Activity (K562 [3]): 2.26%; Activity (K562 [4]): 22.3%; viability at 2 ug/ml [15]: 66%; Activity (K562 [5]): 54.21%; Activity (K562 [6]): 15.21%; Activity (K562 [7]): 30.58%; viability at 10 µM (K562 [8]): 50% |
| O=C1C=CC(OCC(F)(F)F)N1c1ccc(C(F)(F)F)cc1 (stereo unspecified) | 8.39 µM | 2.3 µM | 36.2 µM | 13.1 µM | – |
| CCc1ccc(N2C(=O)C=CC2OCC(F)(F)F)cc1 (stereo unspecified) | 8.09 µM | 7.84 µM | 6.51 µM | 4.47 µM | – |
| CC(C)NC1CC(=O)N(c2ccc(F)c(Cl)c2)C1OCC(F)(F)F (stereo unspecified) | > 100 µM | > 100 µM | 6.61 µM | 10.5 µM | viability at 2 ug/ml [15]: 102% |
| COc1cccc2c1C(=O)c1c(O)c3c(c(O)c1C2=O)C[C@@](O)(C(=O)CO)C[C@@H]3O[C@H]1C[C@H](N)[C@H](O)[C@H](C)O1 [DOXORUBICIN HYDROCHLORIDE] | 0.15 µM | – | 1.07 µM | 0.34 µM | – |
| O=C1C=CC(OCC(F)(F)F)N1c1ccc(F)c(Cl)c1 (stereo unspecified) | 7.69 µM | 3.44 µM | 3.11 µM | 6.32 µM | viability at 2 ug/ml [15]: 58% |
| Cc1ccc(N2C(=O)C=CC2OCC(F)(F)F)cc1 (stereo unspecified) | 13.7 µM | 15.8 µM | 9.38 µM | 7.14 µM | – |
| O=C1C=CC(OCC(F)(F)F)N1c1cc(Cl)cc(Cl)c1 (stereo unspecified) | 1.63 µM | 2.43 µM | 5.92 µM | 1.64 µM | – |
| O=C1C=CC(OC(C(F)(F)F)C(F)(F)F)N1c1ccc(Cl)cc1 (stereo unspecified) | 4.3 µM | 2.41 µM | 1.89 µM | 4.48 µM | – |
| O=C1C=CC(OCC(F)(F)F)N1c1ccc([N+](=O)[O-])cc1 (stereo unspecified) | 3.27 µM | 2.83 µM | 2.38 µM | 1.53 µM | – |
| CC(C)c1ccc(N2C(=O)C=CC2OCC(F)(F)F)cc1 (stereo unspecified) | 9.57 µM | 6.64 µM | 5.8 µM | 6.62 µM | – |
| O=C1C=CC(OCC(F)(F)F)N1c1ccc(Br)cc1 (stereo unspecified) | 6.96 µM | 7.57 µM | 7.06 µM | 3.27 µM | – |
| O=C1C=CC(OCC(F)(F)F)N1c1ccccc1 (stereo unspecified) | 23.4 µM | 15.3 µM | > 100 µM | 24.6 µM | – |
| O=C1c2c(O)ccc(O)c2C(=O)c2c(NCCNCCO)ccc(NCCNCCO)c21 [MITOXANTRONE] | 0.07 µM | – | 0.04 µM | 0.14 µM | – |
